US8778303B2, “99mTc-labeled 19 amino acid containing peptide for use as phosphatidylethanolamine binding molecular probe and radiopharmaceutical” (The Medical College of Wisconsin, Inc., priority 2008, dated 2014)
Where no end group is shown, it is not given here.

What was measured:
[1] = liposomes; bind PtdE at equal-molar ratio; cited from earlier work
[2] = literature (McNulty 2003); cited from earlier work
[3] = humans, including patients with Cystic Fibrosis; cited from earlier work
[4] = Cysteine challenge stability test; type: physicochemical; details: cysteine-to-Duramycin ratio of 100:1
Procedure: HPLC method 2. Jupiter C18 column (90 Å pore size, 250×4.6 mm) was used with a buffered mobile phase system consisting of phosphate buffer (10 mM sodium phosphate, pH 6.7) and acetonitrile at a flow rate of 1.0 ml/min at room temperature. A baseline of 5 min at 90% buffer A (phosphate buffer, pH6.7) and 10% buffer B (acetonitrile) was followed by a linear gradient to 10% buffer A and 90% buffer B in 30 min. The level of radioactivity in the HPLC elute was monitored by gamma counting at an energy window of 140±15 keV.
HYNIC-Duramycin was labeled with ^99mTc using the tricine-phosphine co-ligand system. Specifically, 15 μg of HYNIC-Duramycin was mixed with 40 mg of tricine, 1 mg of TPPTS and 20 μg SnCl2 in 0.8 ml at pH 5.3. The labeling was initiated with the addition of about 1 mCi of ^99mTc. The incubation was allowed to proceed for 40 min at room temperature. The final radiopharmaceutical, ^99mTc-HYNIC-Duramycin, was analyzed and purified using HPLC method 2. After purification, acetonitrile was removed by evaporation under nitrogen, and ^99mTc-HYNIC-Duramycin was reconstituted in saline for usage. ^99mTc-HYNIC-Duramycin^1 was synthesized in the same fashion. For stability tests, cysteine challenge was carried out at a cysteine-to-^99mTc-Duramycin ratio of 100 to 1, in 0.01 mM phosphate buffer (pH 6.8) for 2 hr at room temperature. The sample was analyzed with radioHPLC (method 2).

rat serum albumin = rat serum albumin (rat, UniProt P02770 25-608); experiment: radioHPLC analysis of the tracer in the presence of rat serum albumin
Sequence of rat serum albumin (P02770 25-608 limits assumed): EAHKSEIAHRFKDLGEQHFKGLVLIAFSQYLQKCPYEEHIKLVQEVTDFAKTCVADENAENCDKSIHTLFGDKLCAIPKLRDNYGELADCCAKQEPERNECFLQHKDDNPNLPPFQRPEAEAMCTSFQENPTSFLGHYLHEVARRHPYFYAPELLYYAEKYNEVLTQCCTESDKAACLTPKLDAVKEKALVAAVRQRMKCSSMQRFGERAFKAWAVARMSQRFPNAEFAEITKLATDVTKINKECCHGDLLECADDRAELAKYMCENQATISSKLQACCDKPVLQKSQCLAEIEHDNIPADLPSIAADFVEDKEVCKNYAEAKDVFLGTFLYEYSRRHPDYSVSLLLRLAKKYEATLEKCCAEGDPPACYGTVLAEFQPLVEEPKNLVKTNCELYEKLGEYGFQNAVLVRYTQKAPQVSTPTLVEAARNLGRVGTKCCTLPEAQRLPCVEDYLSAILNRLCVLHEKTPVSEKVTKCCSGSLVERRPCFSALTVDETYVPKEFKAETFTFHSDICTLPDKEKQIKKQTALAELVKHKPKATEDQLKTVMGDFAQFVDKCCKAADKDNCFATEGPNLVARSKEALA

Row | Molecule | dissociation constant [1] | hepatic retention [2] | toxicity and immunogenicity in clinical testing [3] | radioactivity associated with the peptide diminished/reduced in cysteine challenge [4] [%] | binding result (rat serum albumin)
1 | 19-amino acid peptide produced by Streptoverticillium cinnamoneus, CKQSCSFGPFTFVCDGNTK (SEQ ID NO 1), binds PtdE [Duramycin] | nanomolar range | retained for an extended duration (e.g., many days) in the liver without complete washout | lack of significant toxicity and immunogenicity | 90 | –
2 | homolog of Duramycin with Arg replacing Lys at position two, CRQSCSFGPFTFVCDGNTK (SEQ ID NO 2) (not fully specified (bridges); ends and bridges not checked; also: lanthionine bridges, places not given here; listed as Streptoverticillium cinnamoneus) [Cinnamycin] | nanomolar range | – | – | – | –
3 | CKQSCSFGPFTFVCDGNTK (thioether bonds between positions 1-18, 4-14 and 5-11; amide bond between positions 6 and 19; one HYNIC (6-hydrazinopyridine-3-carboxylic acid) moiety on either Cys-1 or Lys-2, chelating 99mTc with tricine and TPPTS co-ligands, Lantibiotic peptide, cross-linked; also called 99mTc-Duramycin; radiolabeled Duramycin) [^99mTc-HYNIC-Duramycin] | – | – | – | – | no binding
